Test results reported in publication PMC8733726, “Dioctanoyl Ultrashort Tetrabasic β-Peptides Sensitize Multidrug-Resistant Gram-Negative Bacteria to Novobiocin and Rifampicin” (Frontiers in Microbiology, 2021).
Values after ≈ are worked out from the molar mass of the structure shown. Where two headings read alike, the source gives them in different places.

Columns and labels:
[1] = system: wild-type A. baumannii ATCC 17978; test: Checkerboard assay; assay type: cell-based, Acinetobacter baumannii; details: ATCC 17978; for MICcombo: antibiotic with dUSTBβP 3 at 8 μg/mL; for MIC: Acinetobacter baumannii, ATCC17978, 18 h, antibiotic alone (Supplementary Table 7), read-out: MICantibiotic
Excerpt: (§1) Overnight-grown bacterial culture diluted in saline to 0.5 McFarland turbidity was successively diluted 1:50 in MHB to achieve a final concentration of 5 × 10^5 CFU/mL for inoculation. The antibiotic and adjuvant were serially diluted 2-fold along the x-axis and y-axis, respectively, resulting in varying concentrations of both agents in each well. […] Confirmation of turbidity was done using an EMax Plus microplate reader (Molecular Devices, United States) at a wavelength of 590 nm. Wells comprising MHB alone or in the presence of bacterial cells were used as negative or positive controls, respectively. Fractional inhibitory concentration index (FICI) is determined by adding the FICs of both antibiotic and adjuvant. The FIC of the antibiotic is calculated by dividing the MIC of the antibiotic in the presence of the adjuvant by the MIC of the antibiotic alone. Similarly, the FIC of the adjuvant is calculated by dividing the MIC of the adjuvant in the presence of the antibiotic by the MIC of the adjuvant alone.

MDR K. pneumoniae = assay type: cell-based, Klebsiella pneumoniae; details: antibiotic alone
Method: (§2) The adjuvant activities of dUSTBβPs were evaluated using checkerboard assay as previously described ([Berry et al., 2019]). Overnight-grown bacterial culture diluted in saline to 0.5 McFarland turbidity was successively diluted 1:50 in MHB to achieve a final concentration of 5 × 10^5 CFU/mL for inoculation. The antibiotic and adjuvant were serially diluted 2-fold along the x-axis and y-axis, respectively, resulting in varying concentrations of both agents in each well. Subsequently, the 96-well plate was incubated with equal volumes of bacterial inoculum at 37°C for 18 h. Confirmation of turbidity was done using an EMax Plus microplate reader (Molecular Devices, United States) at a wavelength of 590 nm. Wells comprising MHB alone or in the presence of bacterial cells were used as negative or positive controls, respectively. Fractional inhibitory concentration index (FICI) is determined by adding the FICs of both antibiotic and adjuvant. The FIC of the antibiotic is calculated by dividing the MIC of the antibiotic in the presence of the adjuvant by the MIC of the antibiotic alone. Similarly, the FIC of the adjuvant is calculated by dividing the MIC of the adjuvant in the presence of the antibiotic by the MIC of the adjuvant alone. FICI ≤ 0.5, 0.5 < x ≤ 4, and >4 were deemed synergistic, additive, and antagonistic, respectively ([Meletiadis et al., 2010]).

[2] = system: wild-type A. baumannii ATCC 17978; test: Time-kill assay; assay type: cell-based, Acinetobacter baumannii; details: 32 μg/mL novobiocin or 0.5 μg/mL rifampicin alone
Method: (§3) Overnight-grown bacterial culture diluted in PBS to 0.5 McFarland turbidity was successively diluted 1:50 in lysogeny broth (LB). Cell cultures in the presence of dUSTBβP 3, novobiocin, or rifampicin, or combinations of adjuvant and antibiotic were incubated at 37°C. At designated intervals, 100 μL aliquots acquired from each culture tube were serially diluted in PBS and plated on LB agar plates.

MDR A. baumannii 110193 = test: Time-kill assay; assay type: cell-based, Acinetobacter baumannii; details: 32 μg/mL novobiocin or 0.5 μg/mL rifampicin alone
Method: as §3

MDR E. cloacae = test: Checkerboard assay, MDR clinical isolates; assay type: cell-based, Enterobacter cloacae; details: antibiotic alone
Method: as §2

[3] = system: MDR clinical isolates of P. aeruginosa; test: Checkerboard assay, MDR clinical isolates; assay type: cell-based, Pseudomonas aeruginosa; details: antibiotic alone
Method: as §2

[4] = system: wild-type E. coli ATCC 25922; test: microbe, parasite or virus in culture; assay type: cell-based, Escherichia coli; details: ATCC 25922; for MICcombo: antibiotic with dUSTBβP 3 at 8 μg/mL; for MIC: Escherichia coli, ATCC25922, 18 h, antibiotic alone (Supplementary Table 7), read-out: MICantibiotic
Method: as §2

[5] = system: wild-type P. aeruginosa PAO1; test: microbe, parasite or virus in culture; assay type: cell-based, Pseudomonas aeruginosa; details: PAO1; for MICcombo: antibiotic with dUSTBβP 3 at 8 μg/mL; for MIC: Pseudomonas aeruginosa, 18 h, antibiotic alone (Supplementary Table 7), read-out: MICantibiotic
Excerpt: as §1

MDR E. coli = assay type: cell-based, Escherichia coli; details: antibiotic alone
Method: as §2

[6] = system: MDR clinical isolates of A. baumannii; assay type: cell-based, Acinetobacter baumannii; details: for MICantibiotic: antibiotic alone
Method: as §2

[7] = system: MDR P. aeruginosa clinical isolates; test: Resistance phenotype (MICs of antibiotics) of MDR clinical isolates; assay type: cell-based, Pseudomonas aeruginosa; details: Pseudomonas aeruginosa
[8] = system: MDR K. pneumoniae clinical isolates; test: as above; assay type: cell-based, Klebsiella pneumoniae; details: Klebsiella pneumoniae, read-out: MIC
[9] = system: MDR E. coli clinical isolates; test: as above; assay type: cell-based, Escherichia coli; details: Escherichia coli, read-out: MIC
[10] = system: MDR A. baumannii clinical isolates; test: as above; assay type: cell-based, Acinetobacter baumannii; details: Acinetobacter baumannii, LAC-4; read-out: MIC
[11] = system: MDR E. cloacae clinical isolates; test: as above; assay type: cell-based, Enterobacter cloacae; details: Enterobacter cloacae, read-out: MIC
P. aeruginosa PAO1 = assay type: cell-based, Pseudomonas aeruginosa; details: PAO1, 18 h
Method: (§4) The in vitro antibacterial activities of dUSTBβPs were evaluated using microbroth dilution susceptibility test, in accordance with the Clinical and Laboratory Standards Institute (CLSI) guidelines ([Clinical and Laboratory Standards Institute, 2019]). Overnight-grown bacterial culture diluted in saline to 0.5 McFarland turbidity was successively diluted 1:50 in Mueller-Hinton broth (MHB) to achieve a final concentration of 5 × 10^5 colony forming units (CFU)/mL for inoculation. The agents were serially diluted 2-fold in MHB on a 96-well plate; mixed with bacterial inoculum of equal volumes, and incubated at 37°C for 18 h. Antibacterial activity was determined by the minimum inhibitory concentration (MIC), which is the lowest concentration of agent required for inhibition of visible bacterial growth in the form of turbidity. Confirmation of turbidity was done using an EMax Plus microplate reader (Molecular Devices, United States) at a wavelength of 590 nm. Wells comprising MHB alone or MHB inoculated with bacteria were used as negative or positive controls, respectively.

E. coli ATCC 25922 = assay type: cell-based, Escherichia coli; details: ATCC 25922, 18 h
Method: as §4

A. baumannii ATCC 17978 = assay type: cell-based, Acinetobacter baumannii; details: ATCC 17978, 18 h
Method: as §4

in vitro [12] = assay type: cell-based; details: human
Method: The degree of hemolysis induced by dUSTBβPs was determined by the amount of hemoglobin released from human erythrocytes upon incubation. Fresh human blood supplied by a commercial vendor was obtained from normal healthy volunteers following informed consent. The agent of interest was serially diluted in vehicle consisting of phosphate-buffered saline (PBS), saline, 5% glucose, or equivalents. The samples were incubated with gentle mixing at 37°C for 45 min and were subsequently centrifuged. The supernatant (plasma layer) was removed and centrifuged once more to completely pellet the cells. The plasma layer was diluted with Drabkin’s reagent and analyzed at a wavelength of 540 nm. Experiments were conducted in triplicates, and a calibration curve prepared by diluting blood (after addition of vehicle) was used to quantitate heme release. The vehicle or Triton X-100 were used as negative or positive controls, respectively.

in vitro [13] = details: human, plasma
Method: Stability of dUSTBβP 3 was evaluated in human plasma. […] The supernatant was analyzed by HPLC-tandem mass spectrometry using selected reaction monitoring. The % compound remaining was determined by comparing peak areas at different time points to time zero. Assuming first-order kinetics, the half-life was extrapolated from the slope of the initial linear range of the logarithmic curve of compound remaining over time. Experiments were performed in duplicates, and the reference compounds include propantheline and propoxycaine.

CO[C@H]1/C=C/O[C@@]2(C)Oc3c(C)c(O)c4c(O)c(c(/C=N/N5CCN(C)CC5)c(O)c4c3C2=O)NC(=O)/C(C)=C\C=C\[C@H](C)[C@H](O)[C@@H](C)[C@@H](O)[C@@H](C)[C@H](OC(C)=O)[C@@H]1C [Rifampicin]
MICantibiotic ([1]; antibiotic alone): 2 µg/mL | MICcombo [1]: 0.008 µg/mL | MIC [1]: 2 µg/mL | MICantibiotic (MDR K. pneumoniae; 113250): 32 µg/mL | MICantibiotic (MDR K. pneumoniae; 113254): 8 µg/mL | MICantibiotic (MDR K. pneumoniae; 116381): > 256 µg/mL | MICantibiotic (MDR K. pneumoniae; 116381, listed as rifampicin): 512 µg/mL | Time-kill outcome [2]: Bacteriostatic | Time-kill outcome (MDR A. baumannii 110193): Bacteriostatic | MICantibiotic (MDR E. cloacae; 117029): 8 µg/mL | MICantibiotic (MDR E. cloacae; 118564): 8 µg/mL | MICantibiotic (MDR E. cloacae; 121187): 2 µg/mL | MICantibiotic ([3]; PA259-96196): 16 µg/mL | MICantibiotic ([3]; PA262-101856): 512 µg/mL | MICantibiotic ([3]; PA264-104354): 16 µg/mL | MICantibiotic ([3]; PA91433): 16 µg/mL | MICantibiotic ([3]; PA114228): 16 µg/mL | MICantibiotic ([4]; antibiotic alone): 4 µg/mL | MICcombo [4]: 0.008 µg/mL | MIC [4]: 4 µg/mL | MICantibiotic ([5]; antibiotic alone): 16 µg/mL | MICcombo [5]: 0.25 µg/mL | MIC [5]: 16 µg/mL (≈ 19.4 µM) | MICantibiotic (MDR E. coli; 94393): 8 µg/mL | MICantibiotic (MDR E. coli; 94474): 8 µg/mL | MICantibiotic (MDR E. coli; 107115): 32 µg/mL | MICantibiotic [6]; 92247: 2 µg/mL | MICantibiotic [6]; 110193: 1 µg/mL | MICantibiotic ([6]; AB027): 1 µg/mL | MICantibiotic ([6]; AB031): 1 µg/mL | MICantibiotic ([6]; LAC-4): 0.5 µg/mL

NC[C@H]1O[C@H](O[C@H]2[C@H](O)[C@@H](O[C@H]3O[C@H](CO)[C@@H](O)[C@H](N)[C@H]3O)[C@H](N)C[C@@H]2N)[C@H](N)C[C@@H]1O [Tobramycin]
MICcombo [1]: > 1 µg/mL | MIC [1]: > 1 µg/mL | MIC ([7]; 259-96196, read-out: MIC): 256 µg/mL (≈ 548 µM) | MIC ([7]; 262-101856, read-out: MIC): 1020 µg/mL (≈ 2190 µM) | MIC ([7]; 264-104354): 128 µg/mL (≈ 274 µM) | MIC ([7]; 91433, read-out: MIC): 16 µg/mL (≈ 34.2 µM) | MIC ([7]; 114228, read-out: MIC): 2 µg/mL (≈ 4.28 µM) | MIC [8]; 113250: ≤ 0.5 µg/mL | MIC [8]; 113254: ≤ 0.5 µg/mL | MIC [8]; 116381: 4 µg/mL (≈ 8.56 µM) | MICcombo [4]: 1 µg/mL | MIC [4]: 2 µg/mL | MICcombo [5]: 1 µg/mL | MIC [5]: 1 µg/mL (≈ 2.14 µM) | MIC ([9]; 94393 (mcr-1 +)): ≤ 0.5 µg/mL | MIC ([9]; 94474 (mcr-1 +)): 32 µg/mL (≈ 68.4 µM) | MIC [9]; 107115: 8 µg/mL (≈ 17.1 µM) | MIC [10]: > 4 µg/mL | MIC [11]; 117029: 2 µg/mL (≈ 4.28 µM) | MIC [11]; 118564: 1 µg/mL (≈ 2.14 µM) | MIC [11]; 121187: 32 µg/mL (≈ 68.4 µM)

CCCCCCCC(=O)NC(CCCN)CC(=O)NCCCN(CCCNC(=O)CC(CCCN)NC(=O)CCCCCCC)CC(=O)NC(CCCN)CC(N)=O (stereo not shown) [dUSTBβP 1]
MIC (P. aeruginosa PAO1): >128 µg/mL | MIC (E. coli ATCC 25922): >128 µg/mL | MIC (A. baumannii ATCC 17978): >128 µg/mL | hemolysis at 45 min, 1.5625 µM (in vitro [12]): 3.11 ± 0.07% | hemolysis at 45 min, 3.125 µM (in vitro [12]): 3.12 ± 0.09% | hemolysis at 45 min, 6.25 µM (in vitro [12]): 3.13% | hemolysis at 45 min, 12.5 µM (in vitro [12]): 3.16 ± 0.04% | hemolysis at 45 min, 25 µM (in vitro [12]): 3.12 ± 0.05% | hemolysis at 45 min, 50 µM (in vitro [12]): 3.17 ± 0.06% | hemolysis at 45 min, 100 µM (in vitro [12]): 3.35 ± 0.17% | hemolysis at 45 min, 200 µM (in vitro [12]): 2.26 ± 0.19%

CCCCCCCC(=O)NC(CCCCN)CC(=O)NCCCN(CCCNC(=O)CC(CCCCN)NC(=O)CCCCCCC)CC(=O)NC(CCCCN)CC(N)=O (stereo not shown) [dUSTBβP 2]
MIC (P. aeruginosa PAO1): >128 µg/mL | MIC (E. coli ATCC 25922): >128 µg/mL | MIC (A. baumannii ATCC 17978): >128 µg/mL | hemolysis at 45 min, 1.5625 µM (in vitro [12]): 3.33 ± 0.12% | hemolysis at 45 min, 3.125 µM (in vitro [12]): 3.28 ± 0.21% | hemolysis at 45 min, 6.25 µM (in vitro [12]): 3.23 ± 0.11% | hemolysis at 45 min, 12.5 µM (in vitro [12]): 3.22 ± 0.2% | hemolysis at 45 min, 25 µM (in vitro [12]): 3.29 ± 0.14% | hemolysis at 45 min, 50 µM (in vitro [12]): 3.24 ± 0.15% | hemolysis at 45 min, 100 µM (in vitro [12]): 3.26 ± 0.1% | hemolysis at 45 min, 200 µM (in vitro [12]): 3.21 ± 0.13%

CCCCCCCC(=O)N[C@@H](CCCNC(=N)N)C(=O)NCCCN(CCCNC(=O)[C@H](CCCNC(=N)N)NC(=O)CCCCCCC)CC(=O)N[C@@H](CCCNC(=N)N)C(N)=O [di(C8-Arg)-Nbap-Arg-NH2]
remaining at 2 h, 1 μM (in vitro [13]): 39.5 ± 7.4% | MIC of compound alone ([6]; MDR clinical isolates of, 18 h): 16 µg/mL
